# Laboratory results taken from patent US10723741B1, “DNA polymerase IIIC inhibitors and use thereof” (Acurx Pharmaceuticals, LLC, priority 2018, dated 2020).
# Where a name gives a salt, the structure may show the parent alone. Read-outs that look alike come from different tables or passages of the source.
# Experiments:
# Assay type in all cases: cell-based
# [1] = test system: Enterococcus faecium ATCC 700221 (VRE); experiment: Broth microdilution MIC, E. faecium ATCC 700221 (VRE); conditions: Enterococcus faecium, read-out: MIC E. faecium ATCC 700221 (VRE)
# Outline: (§1)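 Two-fold dilutions from 64 to 0.0625 μg/ml final, 1% DMSO, were inoculated at ~5.0×10^5 cfu/ml in the strain's test medium and kept 20 h at 37 °C in ambient atmosphere. Colonies were grown on MHA, with S. pneumoniae on blood agar under 5% CO2.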
# [2] = test system: Escherichia coli ATCC 25922; experiment: Broth microdilution MIC, E. coli ATCC 25922 (MHIIB w & w/o 4 mM EDTA); conditions: for MIC: Escherichia coli, read-out: MIC E. coli ATCC 25922; for MIC E. coli ATCC 25922 + 4 mM EDTA: with 4 mM EDTA
# Outline: as §1
# [3] = test system: Streptococcus pneumoniae ATCC 49619; experiment: Broth microdilution MIC, S. pneumoniae ATCC 49619; conditions: read-out: MIC S. pneumoniae ATCC 49619
# Outline: as §1
# [4] = test system: Bacillus subtilis ATCC 6633; experiment: Broth microdilution MIC, B. subtilis ATCC 6633; conditions: read-out: MIC B. subtilis ATCC 6633
# Outline: as §1
# [5] = test system: Enterococcus faecalis ATCC 29212; experiment: Broth microdilution MIC, E. faecalis ATCC 29212; conditions: read-out: MIC E. faecalis ATCC 29212
# Outline: as §1
# [6] = test system: Staphylococcus aureus NRS384 (MRSA); experiment: Broth microdilution MIC, S. aureus NRS384 (MRSA); conditions: Staphylococcus aureus, read-out: MIC NRS 384 (MRSA)
# Outline: as §1
# [7] = test system: Staphylococcus aureus ATCC 29213 (MSSA); experiment: Broth microdilution MIC, S. aureus ATCC 29213 (MSSA); conditions: read-out: MIC S. aureus ATCC 29213 (MSSA)
# Outline: as §1
# [8] = broth microdilution, 37° C., 20 hours
# [9] = ATCC25922, without EDTA, broth microdilution, 37° C., 20 hours
# [10] = ATCC49619, broth microdilution, 37° C., 20 hours
# [11] = ATCC6633, broth microdilution, 37° C., 20 hours
# [12] = ATCC29212, broth microdilution, 37° C., 20 hours
SMILES,"MIC [1, 8]","MIC [2, 9]","MIC E. coli ATCC 25922 + 4 mM EDTA [2, 8]","MIC [3, 10]","MIC [4, 11]","MIC [5, 12]","MIC [6, 8]","MIC [7, 8]",MIC ([1]; 20 h),"MIC ([2]; ATCC25922, 20 h)","MIC ([3]; ATCC49619, 20 h)","MIC ([4]; ATCC6633, 20 h)","MIC ([5]; ATCC29212, 20 h)",MIC ([6]; 20 h),MIC ([7]; 20 h)
"COC(=O)CCn1cc2nc(NCc3ccc(Cl)c(Cl)c3)[nH]c(=O)c2n1 [Compound 232, Methyl 3-(5-((3,4-dichlorobenzyl)amino)-7-oxo-6,7-dihydro-2H-pyrazolo[4,3-d]pyrimidin-2-yl)propanoate]",16 µg/mL,> 64 µg/mL,>64 µg/mL,16 µg/mL,16 µg/mL,> 64 µg/mL,32 µg/mL,> 64 µg/mL,–,–,–,–,–,–,–
"Cc1nnc(CCn2ncc3nc(NCc4ccc(Cl)c(Cl)c4)[nH]c(=O)c32)o1 [Compound 233, 5-((3,4-dichlorobenzyl)amino)-1-(2-(5-methyl-1,3,4-oxadiazol-2-yl)ethyl)-1H-pyrazolo[4,3-d]pyrimidin-7(6H)-one]",2 µg/mL,> 64 µg/mL,64 µg/mL,2 µg/mL,2 µg/mL,4 µg/mL,4 µg/mL,4 µg/mL,–,–,–,–,–,–,–
"Cl.O=c1[nH]c(NCc2ccc(Cl)c(Cl)c2)nc2cnn(CCc3nnc(CO)o3)c12 [Compound 234, 5-((3,4-dichlorobenzyl)amino)-1-(2-(5-(hydroxymethyl)-1,3,4-oxadiazol-2-yl)ethyl)-1H-pyrazolo[4,3-d]pyrimidin-7(6H)-one hydrochloride]",8 µg/mL,> 64 µg/mL,>64 µg/mL,16 µg/mL,16 µg/mL,32 µg/mL,64 µg/mL,64 µg/mL,–,–,–,–,–,–,–
"COCc1nnc(CCn2ncc3nc(NCc4ccc(Cl)c(Cl)c4)[nH]c(=O)c32)o1.Cl [Compound 235, 5-((3,4-dichlorobenzyl)amino)-1-(2-(5-(methoxymethyl)-1,3,4-oxadiazol-2-yl)ethyl)-1H-pyrazolo[4,3-d]pyrimidin-7(6H)-one hydrochloride]",4 µg/mL,> 64 µg/mL,>64 µg/mL,8 µg/mL,4 µg/mL,8 µg/mL,16 µg/mL,8 µg/mL,–,–,–,–,–,–,–
"Cl.O=c1[nH]c(NCc2ccc(Cl)c(Cl)c2)nc2cnn(CC3C(O)C4CCN3CC4)c12 (stereo not shown) [Compound 236, 5-((3,4-Dichlorobenzyl)amino)-1-((3-hydroxyquinuclidin-2-yl)methyl)-1H-pyrazolo[4,3-d]pyrimidin-7(6H)-one]",64 µg/mL,> 64 µg/mL,64 µg/mL,8 µg/mL,32 µg/mL,64 µg/mL,> 64 µg/mL,> 64 µg/mL,–,–,–,–,–,–,–
"NS(=O)(=O)CCn1ncc2nc(NCc3ccc(Cl)c(Cl)c3)[nH]c(=O)c21 [Compound 237, 2-(5-((3,4-dichlorobenzyl)amino)-7-oxo-6,7-dihydro-1H-pyrazolo[4,3-d]pyrimidin-1-yl)ethanesulfonamide]",16 µg/mL,> 64 µg/mL,64 µg/mL,4 µg/mL,16 µg/mL,32 µg/mL,32 µg/mL,32 µg/mL,–,–,–,–,–,–,–
"CC(C)(C)NS(=O)(=O)CCn1ncc2nc(NCc3ccc(Cl)c(Cl)c3)[nH]c(=O)c21 [Compound 238, N-(tert-butyl)-2-(5-((3,4-dichlorobenzyl)amino)-7-oxo-6,7-dihydro-1H-pyrazolo[4,3-d]pyrimidin-1-yl)ethanesulfonamide]",2 µg/mL,> 64 µg/mL,>64 µg/mL,8 µg/mL,4 µg/mL,8 µg/mL,4 µg/mL,8 µg/mL,–,–,–,–,–,–,–
"C[C@@H](O)Cn1ncc2nc(NCc3ccc(Cl)c(Cl)c3)[nH]c(=O)c21 [Compound 239, (R)-5-((3,4-dichlorobenzyl)amino)-1-(2-hydroxypropyl)-1H-pyrazolo[4,3-d]pyrimidin-7(6H)-one]",2 µg/mL,> 64 µg/mL,>64 µg/mL,8 µg/mL,2 µg/mL,8 µg/mL,4 µg/mL,4 µg/mL,–,–,–,–,–,–,–
"C[C@H](O)Cn1ncc2nc(NCc3ccc(Cl)c(Cl)c3)[nH]c(=O)c21 [Compound 240, (S)-5-((3,4-dichlorobenzyl)amino)-1-(2-hydroxypropyl)-1H-pyrazolo[4,3-d]pyrimidin-7(6H)-one]",4 µg/mL,> 64 µg/mL,>64 µg/mL,4 µg/mL,2 µg/mL,8 µg/mL,4 µg/mL,4 µg/mL,–,–,–,–,–,–,–
"CN1CCC(O)(Cn2ncc3nc(NCc4ccc(Cl)c(Cl)c4)[nH]c(=O)c32)CC1.Cl [Compound 241, 5-((3,4-dichlorobenzyl)amino)-1-((4-hydroxy-1-methylpiperidin-4-yl)methyl)-1H-pyrazolo[4,3-d]pyrimidin-7(6H)-one hydrochloride]",64 µg/mL,> 64 µg/mL,>64 µg/mL,8 µg/mL,4 µg/mL,32 µg/mL,64 µg/mL,32 µg/mL,–,–,–,–,–,–,–
"CN1CCC(n2ncc3nc(NCc4ccc(Cl)c(Cl)c4)[nH]c(=O)c32)C1 (stereo not shown) [Compound 243, 5-((3,4-Dichlorobenzyl)amino)-1-(1-methylpyrrolidin-3-yl)-1H-pyrazolo[4,3-d]pyrimidin-7(6H)-one TFA salt]",–,–,32 µg/mL,–,–,–,–,–,4 µg/mL,> 64 µg/mL,4 µg/mL,4 µg/mL,8 µg/mL,8 µg/mL,8 µg/mL
"Cl.Cl.O=c1[nH]c(NCc2ccc(Cl)c(Cl)c2)nc2cnn(C3CCN(Cc4ccccn4)CC3)c12 [Compound 244, 5-((3,4-Dichlorobenzyl)amino)-1-(1-(pyridin-2-ylmethyl)piperidin-4-yl)-1H-pyrazolo[4,3-d]pyrimidin-7(6H)-one dihydrochloride]",2 µg/mL,> 64 µg/mL,16 µg/mL,4 µg/mL,1 µg/mL,4 µg/mL,2 µg/mL,2 µg/mL,–,–,–,–,–,–,–
"Cl.Cl.O=c1[nH]c(NCc2ccc(Cl)c(Cl)c2)nc2cnn(C3CCN(Cc4cccnc4)CC3)c12 [Compound 245, 5-((3,4-Dichlorobenzyl)amino)-1-(1-(pyridin-3-ylmethyl)piperidin-4-yl)-1H-pyrazolo[4,3-d]pyrimidin-7(6H)-one dihydrochloride]",1 µg/mL,> 64 µg/mL,32 µg/mL,2 µg/mL,1 µg/mL,4 µg/mL,2 µg/mL,2 µg/mL,–,–,–,–,–,–,–
"Cl.Cl.O=c1[nH]c(NCc2ccc(Cl)c(Cl)c2)nc2cnn(C3CCN(Cc4ccncc4)CC3)c12 [Compound 246, 5-((3,4-Dichlorobenzyl)amino)-1-(1-(pyridin-4-ylmethyl)piperidin-4-yl)-1H-pyrazolo[4,3-d]pyrimidin-7(6H)-one dihydrochloride]",2 µg/mL,> 64 µg/mL,>64 µg/mL,4 µg/mL,1 µg/mL,4 µg/mL,2 µg/mL,2 µg/mL,–,–,–,–,–,–,–
